The supplement of paper PMC10627819

Experiments:
[1] = tested on: B. subtilis 168; assay: fitness (endpoint OD595 vs no drug) (fraction); higher = more growth
Procedure, shortened: (§1)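 Cultures at OD595 0.01 were dispensed into 384-well plates in TSB, LB Lennox or CY and incubated at 37 °C. Every 30 min for 14 h, OD595 was read and corrected by the first reading. Fitness is the optical density at entry into stationary phase relative to the robust mean of no-drug control wells, capped at 1.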

[2] = tested on: S. pneumoniae D39V; assay: as above
Procedure, shortened: as §1

[3] = tested on: B. subtilis 168; assay: Bliss interaction score (quartile over a dose matrix) (fitness difference); higher = more antagonism (negative = synergy)
Procedure, shortened: (§2)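 The Bliss score is observed minus expected fitness, where expected fitness is the product of the single-drug fitness values inferred from the combination data. Fitness is the OD595 at the onset of stationary phase over the plate's robust no-drug mean, capped at 1. Scores are summarised by quartiles over technical, biological and donor/recipient replicates.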

[4] = tested on: S. aureus DSM 20231; assay: as above
Procedure, shortened: as §2

[5] = tested on: S. pneumoniae D39V; assay: as above
Procedure, shortened: as §2

[6] = tested on: S. aureus Newman; assay: as above
Procedure, shortened: as §2
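For Bliss interaction score (quartile over a dose matrix) in this document: first quartile when negative (synergy) and third quartile when positive (antagonism).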

C[C@H]1c2cccc(O)c2C(=O)C2=C(O)[C@]3(O)C(=O)C(C(N)=O)=C(O)[C@@H](N(C)C)[C@@H]3[C@@H](O)[C@@H]21 [Doxycycline] + Cc1onc(-c2ccccc2)c1C(=O)N[C@@H]1C(=O)N2[C@@H]1SC(C)(C)[C@@H]2C(=O)O [Oxacillin]
Settings	fitness
[1], first compound 0.02 µg/mL, partner 0.002 µg/mL	0.885
[1], first compound 0.02 µg/mL, partner 0.004 µg/mL	0.933
[1], first compound 0.02 µg/mL, partner 0.008 µg/mL	0.882
[1], first compound 0.04 µg/mL, partner 0.002 µg/mL	0.762
[1], first compound 0.04 µg/mL, partner 0.004 µg/mL	0.771
[1], first compound 0.04 µg/mL, partner 0.008 µg/mL	0.716
[1], first compound 0.08 µg/mL, partner 0.002 µg/mL	0.419
[1], first compound 0.08 µg/mL, partner 0.004 µg/mL	0.422
[1], first compound 0.08 µg/mL, partner 0.008 µg/mL	0.372
[2], first compound 0.0155 µg/mL, partner 0.01 µg/mL	0.957
[2], first compound 0.0155 µg/mL, partner 0.02 µg/mL	0.921
[2], first compound 0.031 µg/mL, partner 0.01 µg/mL	0.917
[2], first compound 0.031 µg/mL, partner 0.02 µg/mL	0.885
[2], first compound 0.062 µg/mL, partner 0.01 µg/mL	0.859
[2], first compound 0.062 µg/mL, partner 0.02 µg/mL	0.801
[2], first compound 0.062 µg/mL, partner 0.04 µg/mL	0.71

fitness, one replicate
Settings	partner 0.0078 µg/mL	partner 0.01 µg/mL	partner 0.0155 µg/mL	partner 0.02 µg/mL	partner 0.031 µg/mL	partner 0.04 µg/mL	partner 0.075 µg/mL	partner 0.15 µg/mL	partner 0.3 µg/mL
[1], first compound 0.02 µg/mL	≥ 1	–	≥ 1	–	≥ 1	–	0.661	0.0438	0.0604
[1], first compound 0.04 µg/mL	0.858	–	0.843	–	0.843	–	0.576	0.025	0.0223
[1], first compound 0.08 µg/mL	0.721	–	0.742	–	0.716	–	0.102	0.0327	0.0213
[2], first compound 0.003875 µg/mL	–	≥ 1	–	0.978	–	0.357	–	–	–
[2], first compound 0.00775 µg/mL	–	≥ 1	–	0.959	–	0.571	–	–	–

Settings	Bliss interaction score
[3]	0.0493
[4]	0.0402
[5]	0.159
[6]	-0.0136
